The text below walks through data of US10473647B1, “Peptides for use in treatment and diagnosis of type 1 diabetes” (ImmusanT, Inc., priority 2014, dated 2019).

Common to all, as to type: cell-based, human
The test system of test [1] is whole blood from subjects with T1D and Celiac disease. Kind of test: Whole blood cytokine release assay, IFN-γ (MAGPIX), Example 1. The note with it: individual 17mer 20 μg/mL, blood 6 days after commencing oral gluten challenge; for subjects with elevated whole blood IFN-γ release: four subjects.
Test [2] shares this test system. Kind of test: Whole blood cytokine release assay, IL-2 (MAGPIX), Example 1. The note with it: individual 17mer 20 μg/mL, blood 6 days after commencing oral gluten challenge; for subjects with elevated whole blood IL-2 release: four subjects.
Test [3] shares this test system. Nature of the test: Whole blood cytokine release assay, IP-10 (MAGPIX), Example 1. The note with it: individual 17mer 20 μg/mL, blood 6 days after commencing oral gluten challenge; for subjects with elevated whole blood IP-10 release (2-fold greater than medium alone): four subjects.

Regarding MALWMRLLPLLALLALW [SEQ ID NO: 54], the IFN-g fold-change in test [1] (Subject 1) is 1.02; in test [1] (Subject 2) it was 1.01; in test [1] (Subject 6), 0.88; in test [1] (Subject 7) it was 0.67. Moreover, the “IFN-g fold-change (preproinsulin peptides)” value in test [1] (Subject 1) is 1.02 fold; in test [1] (Subject 2), 1.01 fold; in test [1] (Subject 6) it was 0.88 fold; in test [1] (Subject 7), 0.67 fold. Further, the IL-2 fold-change came out at 1.00 in test [2] (Subject 1), 1.00 in test [2] (Subject 2), 1.00 in test [2] (Subject 6) and 0.21 in test [2] (Subject 7). Also, the “IL-2 fold-change (preproinsulin peptides)” value in test [2] (Subject 1) is listed as 1.00 fold; in test [2] (Subject 2), 1.00 fold; in test [2] (Subject 6), 1.00 fold; in test [2] (Subject 7), 0.21 fold. The IP-10 fold-change was determined as 1.04 in test [3] (Subject 1), 1.05 in test [3] (Subject 2), 2.20 in test [3] (Subject 6) and 0.73 in test [3] (Subject 7). In addition, the “IP-10 fold-change (preproinsulin peptides)” value in test [3] (Subject 1) is 1.04 fold; in test [3] (Subject 2), 1.05 fold; in test [3] (Subject 6), 2.20 fold; in test [3] (Subject 7), 0.73 fold. Moreover, the “subjects with elevated whole blood IP-10 release (2-fold greater than medium alone)” value (shortened to “subjects … (2-fold greater than medium alone)”) in test [3] is “stimulated IP-10 release in the strongest responder”.
In the case of MRLLPLLALLALWGPDP [SEQ ID NO: 47], the IFN-g fold-change is listed as 1.02 in test [1] (Subject 1), 0.85 in test [1] (Subject 2), 0.91 in test [1] (Subject 6) and 0.53 in test [1] (Subject 7). Also, the “IFN-g fold-change (preproinsulin peptides)” value in test [1] (Subject 1) is listed as 1.02 fold; in test [1] (Subject 2) it was 0.85 fold; in test [1] (Subject 6), 0.91 fold; in test [1] (Subject 7), 0.53 fold. In addition, the IL-2 fold-change amounted to 1.00 in test [2] (Subject 1), 1.00 in test [2] (Subject 2), 1.00 in test [2] (Subject 6) and 0.36 in test [2] (Subject 7). Also, the “IL-2 fold-change (preproinsulin peptides)” value in test [2] (Subject 1) stood at 1.00 fold; in test [2] (Subject 2) it was 1.00 fold; in test [2] (Subject 6) it was 1.00 fold; in test [2] (Subject 7) it was 0.36 fold. Further, the IP-10 fold-change in test [3] (Subject 1) is 2.07; in test [3] (Subject 2) it was 1.37; in test [3] (Subject 6), 7.26; in test [3] (Subject 7) it was 2.18. The “IP-10 fold-change (preproinsulin peptides)” value in test [3] (Subject 1) was determined as 2.07 fold; in test [3] (Subject 2), 1.37 fold; in test [3] (Subject 6), 7.26 fold; in test [3] (Subject 7) it was 2.18 fold. Besides, in test [3], the “subjects … (2-fold greater than medium alone)” value is listed as “recognized more weakly by three subjects”.
With NQHLCGSHLVEALYLVC [SEQ ID NO: 51], the IFN-g fold-change in test [1] (Subject 1) was 0.91; in test [1] (Subject 2), 0.82; in test [1] (Subject 6), 1.66; in test [1] (Subject 7), 0.53. The “IFN-g fold-change (preproinsulin peptides)” value in test [1] (Subject 1) is reported as 0.91 fold; in test [1] (Subject 2) it was 0.82 fold; in test [1] (Subject 6), 1.66 fold; in test [1] (Subject 7), 0.53 fold. The IL-2 fold-change in test [2] (Subject 1) was found to be 1.00; in test [2] (Subject 2), 1.00; in test [2] (Subject 6) it was 1.00; in test [2] (Subject 7), 0.21. Also, the “IL-2 fold-change (preproinsulin peptides)” value in test [2] (Subject 1) came out at 1.00 fold; in test [2] (Subject 2), 1.00 fold; in test [2] (Subject 6), 1.00 fold; in test [2] (Subject 7), 0.21 fold. The IP-10 fold-change in test [3] (Subject 1) turned out to be 0.95; in test [3] (Subject 2), 1.45; in test [3] (Subject 6), 75.09; in test [3] (Subject 7) it was 1.57. Further, the “IP-10 fold-change (preproinsulin peptides)” value is 0.95 fold in test [3] (Subject 1), 1.45 fold in test [3] (Subject 2), 75.09 fold in test [3] (Subject 6) and 1.57 fold in test [3] (Subject 7). The “subjects … (2-fold greater than medium alone)” value in test [3] is “pronounced in one subject”.
Turning to NVGADIKKTMEGPVEGR [SEQ ID NO: 69], the “subjects with elevated whole blood IFN-γ release” value in test [1] is listed as “Only Subject 7 responded”. For the same sequence, in test [2], the “subjects with elevated whole blood IL-2 release” value is on record as “Only Subject 7 responded”. The “subjects … (2-fold greater than medium alone)” value in test [3] was “Only Subject 7 responded”.
With PKAARPPVTPVLLEKKS [SEQ ID NO: 13], the “subjects with elevated whole blood IFN-γ release” value in test [1] is given as “not IL-2 or IFN-γ release”. Also, in test [2], the “subjects with elevated whole blood IL-2 release” value is on record as “not IL-2”. In test [3], the “subjects … (2-fold greater than medium alone)” value was “all four subjects”.
With PKTRREAEVGQVELGGG [SEQ ID NO: 52], the IFN-g fold-change in test [1] (Subject 1) was 1.07; in test [1] (Subject 2) it was 1.08; in test [1] (Subject 6), 0.81; in test [1] (Subject 7), 0.52. Moreover, the “IFN-g fold-change (preproinsulin peptides)” value came out at 1.07 fold in test [1] (Subject 1), 1.08 fold in test [1] (Subject 2), 0.81 fold in test [1] (Subject 6) and 0.52 fold in test [1] (Subject 7). Moreover, the IL-2 fold-change is 1.00 in test [2] (Subject 1), 1.00 in test [2] (Subject 2), 1.00 in test [2] (Subject 6) and 0.21 in test [2] (Subject 7). In addition, the “IL-2 fold-change (preproinsulin peptides)” value is on record as 1.00 fold in test [2] (Subject 1), 1.00 fold in test [2] (Subject 2), 1.00 fold in test [2] (Subject 6) and 0.21 fold in test [2] (Subject 7). The IP-10 fold-change in test [3] (Subject 1) is listed as 1.08; in test [3] (Subject 2), 1.56; in test [3] (Subject 6) it was 3.69; in test [3] (Subject 7), 0.97. Further, the “IP-10 fold-change (preproinsulin peptides)” value in test [3] (Subject 1) was 1.08 fold; in test [3] (Subject 2), 1.56 fold; in test [3] (Subject 6), 3.69 fold; in test [3] (Subject 7), 0.97 fold.
Turning to PLALEGSLQKRGIVEQC [SEQ ID NO: 58], the IFN-g fold-change was 0.43 in test [1] (Subject 1), 0.82 in test [1] (Subject 2), 0.86 in test [1] (Subject 6) and 1.53 in test [1] (Subject 7). For the same sequence, the “IFN-g fold-change (preproinsulin peptides)” value in test [1] (Subject 1) came out at 0.43 fold; in test [1] (Subject 2) it was 0.82 fold; in test [1] (Subject 6), 0.86 fold; in test [1] (Subject 7), 1.53 fold. In addition, the IL-2 fold-change was 1.00 in test [2] (Subject 1), 1.00 in test [2] (Subject 2), 1.00 in test [2] (Subject 6) and 3.50 in test [2] (Subject 7). The “IL-2 fold-change (preproinsulin peptides)” value was found to be 1.00 fold in test [2] (Subject 1), 1.00 fold in test [2] (Subject 2), 1.00 fold in test [2] (Subject 6) and 3.50 fold in test [2] (Subject 7). The IP-10 fold-change turned out to be 1.23 in test [3] (Subject 1), 1.02 in test [3] (Subject 2), 0.87 in test [3] (Subject 6) and 1.09 in test [3] (Subject 7). Further, the “IP-10 fold-change (preproinsulin peptides)” value is on record as 1.23 fold in test [3] (Subject 1), 1.02 fold in test [3] (Subject 2), 0.87 fold in test [3] (Subject 6) and 1.09 fold in test [3] (Subject 7).
As to PLLALLALWGPDPAAAF [SEQ ID NO: 45], the IFN-g fold-change amounted to 0.78 in test [1] (Subject 1), 1.53 in test [1] (Subject 2), 1.11 in test [1] (Subject 6) and 1.55 in test [1] (Subject 7). Also, the “IFN-g fold-change (preproinsulin peptides)” value in test [1] (Subject 1) was found to be 0.78 fold; in test [1] (Subject 2), 1.53 fold; in test [1] (Subject 6), 1.11 fold; in test [1] (Subject 7), 1.55 fold. The IL-2 fold-change in test [2] (Subject 1) came out at 1.00; in test [2] (Subject 2) it was 1.00; in test [2] (Subject 6) it was 1.64; in test [2] (Subject 7), 3.77. Moreover, the “IL-2 fold-change (preproinsulin peptides)” value was determined as 1.00 fold in test [2] (Subject 1), 1.00 fold in test [2] (Subject 2), 1.64 fold in test [2] (Subject 6) and 3.77 fold in test [2] (Subject 7). For the same sequence, the IP-10 fold-change in test [3] (Subject 1) is 3.27; in test [3] (Subject 2) it was 6.60; in test [3] (Subject 6), 31.61; in test [3] (Subject 7), 2.73. In addition, the “IP-10 fold-change (preproinsulin peptides)” value was found to be 3.27 fold in test [3] (Subject 1), 6.60 fold in test [3] (Subject 2), 31.61 fold in test [3] (Subject 6) and 2.73 fold in test [3] (Subject 7). Besides, in test [3], the “subjects … (2-fold greater than medium alone)” value was “all four subjects”.
